Laboratory results published in ChEMBL document CHEMBL2157968, “Novel multipotent phenylthiazole-tacrine hybrids for the inhibition of cholinesterase activity, β-amyloid aggregation and Ca²⁺ overload” (Bioorg Med Chem, 2012).
Activity calls are given as the source filed them. The calls are words filed in the database; no cut-off is given here.

Columns and labels:
[1] = target: Acetylcholinesterase (Electrophorus electricus, UniProt O42275)
Description: Inhibition of electric eel AChE using acetylthiocholine chloride substrate incubated for 5 mins before substrate addition measured at 3 min interval by Ellman method

[2] = target: Cholinesterase (Equus caballus, UniProt P81908)
Cholinesterase, sequence (P81908 whole entry): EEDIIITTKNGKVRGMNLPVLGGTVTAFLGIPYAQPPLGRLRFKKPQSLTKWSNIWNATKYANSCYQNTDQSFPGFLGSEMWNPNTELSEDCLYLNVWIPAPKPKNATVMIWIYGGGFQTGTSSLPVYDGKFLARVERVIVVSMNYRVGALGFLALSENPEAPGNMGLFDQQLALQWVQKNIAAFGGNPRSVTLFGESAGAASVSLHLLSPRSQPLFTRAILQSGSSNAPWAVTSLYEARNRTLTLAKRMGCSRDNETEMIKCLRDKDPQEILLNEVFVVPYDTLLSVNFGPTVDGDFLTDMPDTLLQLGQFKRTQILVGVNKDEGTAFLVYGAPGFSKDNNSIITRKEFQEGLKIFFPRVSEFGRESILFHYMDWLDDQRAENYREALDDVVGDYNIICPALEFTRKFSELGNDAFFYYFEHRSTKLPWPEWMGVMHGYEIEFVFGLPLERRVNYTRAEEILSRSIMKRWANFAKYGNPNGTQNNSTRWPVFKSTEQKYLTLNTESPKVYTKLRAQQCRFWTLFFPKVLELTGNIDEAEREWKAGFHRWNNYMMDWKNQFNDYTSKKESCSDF
Description: Inhibition of equine serum BuChE using butyrylthiocholine chloride substrate incubated for 5 mins before substrate addition measured at 3 min interval by Ellman method

[3] = system: Cerebral cortex neuron; experiment: Inhibition of KCl-induced Ca2+ overload in Sprague-Dawley rat primary cortical neurons assessed as reduction in F340/F380 fluorescence ratio at 1 uM by Fura-2/AM-based fluorescence assay; assay type: functional, cell-based
[4] = target: Acetylcholinesterase (Electrophorus electricus) (UniProt O42275); experiment: Mixed type inhibition of electric eel AChE using acetylthiocholine chloride substrate incubated for 5 mins before substrate addition measured at 3 min interval by Lineweaver-Burk plot analysis
Acetylcholinesterase (Electrophorus electricus), sequence (O42275 24-633 limits assumed): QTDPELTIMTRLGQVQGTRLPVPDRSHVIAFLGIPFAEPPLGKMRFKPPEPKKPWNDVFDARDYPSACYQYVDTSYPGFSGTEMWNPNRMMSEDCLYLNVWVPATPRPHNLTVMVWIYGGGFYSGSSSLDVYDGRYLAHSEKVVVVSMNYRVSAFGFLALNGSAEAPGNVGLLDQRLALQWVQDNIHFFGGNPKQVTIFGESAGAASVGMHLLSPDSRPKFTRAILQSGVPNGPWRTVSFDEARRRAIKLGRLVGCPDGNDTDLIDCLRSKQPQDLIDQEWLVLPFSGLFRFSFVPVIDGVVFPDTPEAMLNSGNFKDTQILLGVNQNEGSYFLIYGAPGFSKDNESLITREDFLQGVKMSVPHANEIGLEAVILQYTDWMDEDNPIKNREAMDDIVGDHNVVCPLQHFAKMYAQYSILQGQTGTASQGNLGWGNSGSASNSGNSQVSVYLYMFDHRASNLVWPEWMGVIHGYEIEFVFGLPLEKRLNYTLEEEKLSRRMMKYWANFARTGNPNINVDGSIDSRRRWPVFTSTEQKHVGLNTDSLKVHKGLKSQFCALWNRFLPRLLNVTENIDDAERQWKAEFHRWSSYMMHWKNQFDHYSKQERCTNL

Acetylcholinesterase, sequence (O42275 whole entry): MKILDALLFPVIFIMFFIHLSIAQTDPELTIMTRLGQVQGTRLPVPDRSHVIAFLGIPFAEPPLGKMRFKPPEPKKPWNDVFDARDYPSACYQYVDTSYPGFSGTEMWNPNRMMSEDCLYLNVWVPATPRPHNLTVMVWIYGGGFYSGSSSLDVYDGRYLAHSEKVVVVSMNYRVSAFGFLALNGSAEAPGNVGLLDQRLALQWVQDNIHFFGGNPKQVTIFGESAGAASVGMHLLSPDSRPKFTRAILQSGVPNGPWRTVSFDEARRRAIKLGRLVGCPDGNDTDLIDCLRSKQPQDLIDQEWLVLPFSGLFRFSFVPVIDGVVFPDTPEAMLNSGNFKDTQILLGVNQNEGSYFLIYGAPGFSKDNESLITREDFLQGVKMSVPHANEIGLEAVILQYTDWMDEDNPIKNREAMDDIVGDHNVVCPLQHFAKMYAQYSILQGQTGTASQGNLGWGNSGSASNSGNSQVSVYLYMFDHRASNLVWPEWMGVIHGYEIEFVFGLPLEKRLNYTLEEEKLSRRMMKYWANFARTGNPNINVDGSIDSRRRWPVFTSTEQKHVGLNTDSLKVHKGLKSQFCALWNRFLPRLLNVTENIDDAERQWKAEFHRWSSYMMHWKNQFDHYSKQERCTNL

SMILES	IC50 [1] [nM]	IC50 [2] [nM]	inhibition [3]	inhibition [4]
O=C(CCCC(=O)Nc1nc(-c2ccccc2)cs1)NCCCCNc1c2c(nc3ccccc13)CCCC2	282	0.55	–	–
CCN(CCCNc1c2c(nc3ccccc13)CCCC2)CCC(=O)Nc1nc(-c2ccc(Cl)cc2)cs1	1200	4.17	–	–
O=C(CCC(=O)Nc1nc(-c2ccc(Cl)cc2)cs1)NCCCCNc1c2c(nc3ccccc13)CCCC2	1350	16.6	–	–
CCN(CCCCNc1c2c(nc3ccccc13)CCCC2)CCC(=O)Nc1nc(-c2ccccc2)cs1	110	18.2	–	–
O=C(CCCC(=O)Nc1nc(-c2ccccc2)cs1)NCCCNc1c2c(nc3ccccc13)CCCC2	380	1780	–	–
CCN(CCCCCCNc1c2c(nc3ccccc13)CCCC2)CC(=O)Nc1nc(-c2ccccc2)cs1	81.3	468	–	–
CCN(CCCNc1c2c(nc3ccccc13)CCCC2)CCC(=O)Nc1nc(-c2ccccc2)cs1	324	6.03	–	–
O=C(CCC(=O)Nc1nc(-c2ccccc2)cs1)NCCCCNc1c2c(nc3ccccc13)CCCC2	490	0.603	–	–
CCN(CCCCCCNc1c2c(nc3ccccc13)CCCC2)CC(=O)Nc1nc(-c2ccc(OC)cc2)cs1	158	589	inactive	–
CCN(CCCCNc1c2c(nc3ccccc13)CCCC2)CCC(=O)Nc1nc(-c2ccc(Cl)cc2)cs1	120	45.7	–	–
CCN(CCCCNc1c2c(nc3ccccc13)CCCC2)CC(=O)Nc1nc(-c2ccc(OC)cc2)cs1	1660	20.4	–	–
O=C(CCC(=O)Nc1nc2c(s1)CCCC2)NCCCCNc1c2c(nc3ccccc13)CCCC2	1260	363	–	–
CCN(CCCNc1c2c(nc3ccccc13)CCCC2)CCC(=O)Nc1nc(-c2ccc(OC)cc2)cs1	97.7	0.479	–	–
O=C(CCC(=O)Nc1nc(-c2ccccc2)cs1)NCCCCCCNc1c2c(nc3ccccc13)CCCC2	72.4	0.355	–	Active
CCN(CCCCNc1c2c(nc3ccccc13)CCCC2)CC(=O)Nc1nc(-c2ccccc2)cs1	158	14.8	–	–
CCN(CCCCNc1c2c(nc3ccccc13)CCCC2)CC(=O)Nc1nc(-c2ccc(Cl)cc2)cs1	1620	77.6	–	–
CCN(CCCCNc1c2c(nc3ccccc13)CCCC2)CCC(=O)Nc1nc(-c2ccc(OC)cc2)cs1	288	6.61	–	–
CCN(CCCNc1c2c(nc3ccccc13)CCCC2)CC(=O)Nc1nc(-c2ccccc2)cs1	105	0.0447	–	–
CCN(CCCNc1c2c(nc3ccccc13)CCCC2)CC(=O)Nc1nc(-c2ccc(OC)cc2)cs1	1380	275	–	–
